From article PMC8533089, “Characteristics of Neurokinin-3 Receptor and Its Binding Sites by Mutational Analysis” (Biology, 2021)
Read-outs that look alike come from different tables or passages of the source.

Tests used:
FSH plasma levels = assay: In vivo effect of NKB antagonists on FSH plasma levels (ELISA); set-up: species or system adult male tilapia (Oreochromis niloticus); conditions: antagonist 100 µg/kg BW IP, sGnRHa 10 µg/kg BW after 0.5 h; n = 10
Procedure: (§1) The levels of FSH, LH and GH in the plasma were measured by specific competitive enzyme-linked immunosorbent assay (ELISA), developed for tilapia, based on recombinant gonadotropins or GH that were created by using the yeast Pichia pastoris. For the ELISAs, we used primary antibody antisera against GH [51], FSHβ [52], or against rtLHβ [53], and rtFSHβα [52], rtLHβ [53] or tiGH for the standard curves. Sensitivity for the plasma measurements were 15.84 pg/mL for LH, 0.24 pg/mL for FSH and 30.0 pg/mL for GH. The inter-assay coefficient of variation (CV) was 14.8, 12.5, and 13.0%, while intra-assay CV was 7.2, 8.0, and 8.0% for LH, FSH and GH, respectively.
Adult male tilapia (BW 89.29 ± 32.93 g; gonado-somatic index (GSI) 0.24% ± 0.40%) were injected IP (intraperitoneal) with NKB antagonists, SB-222200 or Osanetant (100 µg/kg BW), and after 0.5 h, a second injection of sGnRHa (10 µg/kg BW) was added. Control groups were injected with sGnRHa ([DAla^6, Pro^9-Net]-mammalian GnRH; Bachem, Budendorf, Switzerland) 10 µg/kg BW) as a positive control. The fish were bled from the caudal blood vessels into heparinized syringes 0, 0.5, 2, 6 and 24 h after injection. This time course is according to standard protocols used previously to test the effect of GnRH on circulating levels of LH, FSH, and GH in tilapia. […]

11-KT plasma levels = assay: 14-day in vivo experiment: plasma 11-KT (ELISA); set-up: species or system adult male tilapia (Oreochromis niloticus); conditions: 500 µg/kg BW IP every 48 h, 14 days; n = 6
Procedure: (§2) Adult male tilapia (BW 87.29 ± 26.1 g; gonado-somatic index (GSI 0.21% ± 0.36%) were IP injected with SB-222200 (500 µg/kg BW in 25% DMSO) and saline with 25% DMSO as a control every 48 h during a 14-day period. Blood was sampled every 48 h. Milt volume was collected from 6 fish from each group 7 and 14 days after the first injection, generally according to [55].
11-KT levels were determined by ELISA, according to [52], using acetylcholine-esterase as a label. The anti- 11-KT was donated by Dr. D.E. Kime (Sheffield, UK). All samples were analyzed in duplicate, and for each ELISA plate, a separate standard curve was run. The lower limits of detection were 0.93 for 11-KT. The intra- and inter-assay coefficients of variance were less than 7%. Steroid levels in the plasma, determined by ELISA, were validated by verifying that serial dilutions were parallel to the standard curve.

[1] = test system: Tac3R of the striped bass; set-up: method as in PMID 28330973; conditions: cited from earlier work
Excerpt: The effect of NKB/NKF peptides on gonadotropin secretion in fish is already well established. The first indication that NKB is widely expressed in fish species and has a stimulatory reproductive effect was shown in zebrafish, goldfish, and tilapia. […] Osetanant re ...

[2] = test system: plasma GH and gonadotropins; assay: 14-day in vivo experiment: plasma GH and gonadotropins (ELISA); set-up: species or system adult male tilapia (Oreochromis niloticus); conditions: 500 µg/kg BW IP every 48 h, 14 days, versus control
Procedure: as §1, §2

tiTac3Ra = tiTac3Ra (Oreochromis niloticus, UniProt A0A075QPN8); assay: CRE-Luc antagonist assay, wild-type receptor, COS-7; format: cell-based, tilapia (Oreochromis niloticus); conditions: for IC50: antagonist 0.001–1000 μM added 10 min before peptide
Sequence of tiTac3Ra (A0A075QPN8 entry or part of it): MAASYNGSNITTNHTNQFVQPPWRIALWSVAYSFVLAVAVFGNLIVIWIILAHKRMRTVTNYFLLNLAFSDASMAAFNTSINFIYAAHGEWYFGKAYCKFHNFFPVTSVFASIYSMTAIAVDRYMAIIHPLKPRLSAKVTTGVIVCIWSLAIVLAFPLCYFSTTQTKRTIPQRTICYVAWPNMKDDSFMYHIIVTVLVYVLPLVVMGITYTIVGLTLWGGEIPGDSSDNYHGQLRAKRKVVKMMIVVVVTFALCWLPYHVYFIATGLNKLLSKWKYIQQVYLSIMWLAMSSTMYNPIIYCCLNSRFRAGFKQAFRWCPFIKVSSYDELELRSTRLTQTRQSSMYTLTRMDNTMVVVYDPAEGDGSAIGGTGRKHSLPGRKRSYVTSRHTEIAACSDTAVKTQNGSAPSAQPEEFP
Procedure: In order to study the signaling pathways of the mutant tiTac3Ra, the entire coding regions of tiTac3Ra (GenBank accession no. KF471674), and both of the mutant receptors were inserted into pcDNA3.1 (Invitrogen, Massachusetts, United States). We used a sensitive luciferase (LUC) reporter gene assay. […] Transient transfection, cell procedures and stimulation protocols followed the procedures previously described. Briefly, 3 μg of each construct, together with 3 μg of a luciferase reporter plasmid were transiently transfected into COS-7 cells (American Type Culture Collection, Manassas, VA, USA). Forty-eight hours after transfection, cells transfected with Tac3Ra plasmid fused with GFP were applied with an Hoechst dye (Invitrogen, Massachusetts, United States; diluted 1:1000) in order to mark nuclei in the culture for transfection analysis.
Non-peptide molecules, SB-222200 (Sigma, Merck, Darmstadt, Germany) and Osanetant (Axon Medchem, Reston, VA, USA), known to antagonize mammalian NK3R [49] were studied for their ability to antagonize tiTac3Ra, which was activated with a fixed dose of the native ligands (10 nM tiNKB or tiNKF), combined with increasing doses of the antagonists (0.001–1000 μM). The antagonists were added 10 min prior to the addition of the peptides. IC50 values were calculated from concentration response curves by means of computerized nonlinear curve-fitting with Prism version 9 software (GraphPad, San Diego, CA, USA). All experiments were repeated at least 3 times using cells from independent transfections, each performed in triplicate.
NKB antagonists, SB-222200 (Figure 7A) and Osanetant (Figure 7B) were added in increasing concentrations (0.001–1000 μM) to transfected COS-7 that expressed tiTac3Ra. Ten minutes after the induction of the antagonists, the ligand, tiNKB or tiNKF (10 nM) was added to the media.

Compound: CC[C@H](NC(=O)c1c(C)c(-c2ccccc2)nc2ccccc12)c1ccccc1 [SB-222200]
- FSH levels, 2 h post injection, combination with sGnRHa (FSH plasma levels): increased FSH levels
- 11-KT plasma levels (11-KT plasma levels): significantly delayed the rise of 11-KT levels in plasma
- antagonistic effect on the Tac3R of the striped bass [1]: no antagonistic effect
- Plasma GH and gonadotropins [2]: did not change significantly
- IC50 (tiTac3Ra; 10 nM tiNKB, COS-7, CRE-Luc, read-out: IC50 versus tiNKB): 84.1 µM
- IC50 (tiTac3Ra; 10 nM tiNKF, COS-7, CRE-Luc, read-out: IC50 versus tiNKF): 37.1 µM
- Emax (tiTac3Ra; COS-7, CRE-Luc, 10 nM tiNKB or tiNKF, read-out: luciferase activity reduced to % of maximal response): 50%
- maximum response rate compared with Osanetant (tiTac3Ra; Figure 7C,D): higher maximum response rate than Osanetant
- inhibitory effect on Tac3Ra activation (tiTac3Ra; in words): strong inhibitory effect
- reduction of receptor activity (in words) (tiTac3Ra; restated in Discussion): reduced the receptor activity by half
